According to patent publication US20230051589A1, “COMPOUNDS AND COMPOSITIONS FOR TREATING CONDITIONS ASSOCIATED WITH NLRP ACTIVITY” (Novartis AG, priority 2018, published 2023):

Test system: IL-1β production in PMA-differentiated THP-1 cells
Test: IL-1β production in PMA-differentiated THP-1 cells stimulated with gramicidin (hTHP-1 assay, 2% fetal bovine serum; Procedures 1-3)
Format: cell-based, human
Settings: Homo sapiens, THP-1, Table B1; hTHP-1 assay containing 2% fetal bovine serum, gramicidin stimulation, IL-1β readout; read-out: hTHP-1 IC50 (average)
Procedure, shortened: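 IL-1β released into supernatants was read by HTRF after 2 h gramicidin (5 μM) challenge. Before challenge, compounds (3-fold dilutions, top 100 μM, 0.37% DMSO) were given 1 h on THP-1 cells differentiated with PMA (20 ng/ml, 16-18 h) and held in 2% FBS medium.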

SMILES	IC50 [nM]
C#CCCC(=O)N(C)Cc1ccc(S(N)(=O)=NC(=O)Nc2c3c(cc4c2CCC4)CCC3)cc1 (single isomer, unassigned) [Example 312, (S) or (R)-N-(4-(N′-((1,2,3,5,6,7-hexahydro-s-indacen-4-yl)carbamoyl)-sulfamidimidoyl)benzyl)-N-methylpent-4-ynamide]	1000 to 5000

Same assay, conditions: Homo sapiens, THP-1, Table B3; hTHP-1 assay containing 2% fetal bovine serum, gramicidin stimulation, IL-1β readout; read-out: hTHP-1 IC50

SMILES	IC50 [nM]
CN(C)Cc1ccc(S(N)(=O)=NC(=O)Nc2c3c(cc4c2CCC4)CCC3)s1 (stereo not drawn) [Example 735, 5-((Dimethylamino)methyl)-N-((1,2,3,5,6,7-hexahydro-s-indacen-4-yl)carbamoyl)thiophene-2-sulfonimidamide]	1000 to 5000
CNCc1csc(S(N)(=O)=NC(=O)Nc2c3c(cc4c2CC4)CCC3)c1F (stereo not drawn) [Example 777, 3-Fluoro-4-((methylamino)methyl)-N′-((2,4,5,6-tetrahydro-1H-cyclobuta[f]inden-3-yl)carbamoyl)thiophene-2-sulfonimidamide]	40 to 200
C[C@](O)(CO)c1ncc(S(N)(=O)=NC(=O)Nc2c3c(cc4c2CC4)CCC3)s1 (stereo partly drawn) [Example 741, 2-((S)-1,2-dihydroxypropan-2-yl)-N′-((2,4,5,6-tetrahydro-1H-cyclobuta[f]inden-3-yl)carbamoyl)thiazole-5-sulfonimidamide]	8 to 40
NS(=O)(=NC(=O)Nc1c2c(cc3c1CCC3)CCC2)c1ccc(-c2ccccc2O)s1 (stereo not drawn) [Example 729, N′-((1,2,3,5,6,7-hexahydro-s-indacen-4-yl)carbamoyl)-5-(2-hydroxyphenyl)thiophene-2-sulfonimidamide]	1000 to 5000
COc1cc(-c2ccc3c(c2NC(=O)N=[S@@](N)(=O)c2cnc(C(C)(C)O)s2)CCC3)ccn1 [Example 784, (R)-2-(2-hydroxypropan-2-yl)-N′-((5-(2-methoxypyridin-4-yl)-2,3-dihydro-1H-inden-4-yl)carbamoyl)thiazole-5-sulfonimidamide]	8 to 40
CC(CO)(CO)c1ncc(S(N)(=O)=NC(=O)Nc2c3c(cc4c2CCC4)CCC3)s1 (stereo not drawn) [Example 756, 2-(1,3-Dihydroxy-2-methylpropan-2-yl)-N′-((1,2,3,5,6,7-hexahydro-s-indacen-4-yl)carbamoyl)thiazole-5-sulfonimidamide]	40 to 200
CNCc1csc(S(N)(=O)=NC(=O)Nc2c3c(cc4c2CCC4)CCC3)c1F (stereo not drawn) [Example 779, 3-Fluoro-N′-((1,2,3,5,6,7-hexahydro-s-indacen-4-yl)carbamoyl)-4-((methylamino)methyl)thiophene-2-sulfonimidamide]	40 to 200

Same assay, conditions: Homo sapiens, THP-1, hTHP-1 assay containing 2% fetal bovine serum, Table B2, class symbols; read-out: IC50

SMILES	IC50 [nM]
N[S@](=O)(=NC(=O)Nc1c2c(cc3c1CCC3)CCC2)c1ccc([C@H]2CCN2)cc1 [Compound 802b]	5000 to 30000
CN(C)C(c1ccc(S(N)(=O)=NC(=O)Nc2c3c(cc4c2CCC4)CCC3)cc1)C(F)F (stereo not drawn) [Example 474, 4-(1-(Dimethylamino)-2,2-difluoroethyl)-N-((1,2,3,5,6,7-hexahydro-s-indacen-4-yl)carbamoyl)benzenesulfonimidamide]	1000 to 5000
CCn1ccc([S@](N)(=O)=NC(=O)Nc2c3c(cc4c2CC4)CCC3)n1 [Compound 916a]	40 to 200
NS(=O)(=NC(=O)Nc1c2c(cc3c1CCC3)CCC2)c1ccc(OC(F)F)cc1 (stereo not drawn) [Example 493, 4-(Difluoromethoxy)-N′-((1,2,3,5,6,7-hexahydro-s-indacen-4-yl)carbamoyl) benzenesulfonimidamide]	5000 to 30000
CC(C)(O)c1ccnc([S@](N)(=O)=NC(=O)Nc2c3c(c(C#N)c4c2CCC4)CCC3)c1 [Compound 818a]	1000 to 5000
NS(=O)(=NC(=O)Nc1c2c(cc3c1CCC3)CCC2)c1ccc([C@@H]2CCCN2)s1 (stereo partly drawn) [921f^]	200 to 1000
COCc1nc(C(C)(C)O)sc1S(N)(=O)=NC(=O)Nc1c2c(c(C#N)c3c1CCC3)CCC2 (stereo not drawn) [Example 679, N′-((8-cyano-1,2,3,5,6,7-hexahydro-s-indacen-4-yl)carbamoyl)-2-(2-hydroxypropan-2-yl)-4-(methoxymethyl)thiazole-5-sulfonimidamide]	200 to 1000
CC(C)c1cnc([S@@](N)(=O)=NC(=O)Nc2c3c(cc4c2CCC4)CCC3)c(F)c1 [Compound 903a]	200 to 1000
CC(C)(O)c1nc(CO)c([S@@](N)(=O)=NC(=O)Nc2c3c(cc4c2C(=O)CC4)CCC3)s1 [Compound 914a]	5000 to 30000
CC(C)(O)c1ccnc(S(N)(=O)=NC(=O)Nc2c3c(c(C#N)c4c2CCC4)CCC3)c1 (stereo not drawn) [Example 681, N′-((8-cyano-1,2,3,5,6,7-hexahydro-s-indacen-4-yl)carbamoyl)-4-(2-hydroxypropan-2-yl)pyridine-2-sulfonimidamide]	200 to 1000
N[S@](=O)(=NC(=O)Nc1c2c(cc3c1CCC3)CCC2)c1ccc([C@@H]2CCCN2)s1 [Compound 921d]	200 to 1000

Same assay, conditions: Homo sapiens, THP-1, hTHP-1 assay containing 2% fetal bovine serum, Table B2, given as bound; read-out: IC50

SMILES	IC50 [nM]
NS(=O)(=NC(=O)Nc1c2c(cc3c1CCC3)CCC2)c1ccc(C2CCNC2)cc1F (single isomer, unassigned) [Example 622, (R,S) or (S,S)-2-fluoro-N′-((1,2,3,5,6,7-hexahydro-s-indacen-4-yl)carbamoyl)-4-pyrrolidin-3-yl) benzenesulfonimidamide]	> 30000
NS(=O)(=NC(=O)Nc1c2c(cc3c1CCC3)CCC2)c1ccccc1 (single isomer, unassigned) [Example 612, (R) or (S)-N′-((1,2,3,5,6,7-hexahydro-s-indacen-4-yl)carbamoyl) benzenesulfonimidamide]	> 30000

Same assay, conditions: Table B1; hTHP-1 assay containing 2% fetal bovine serum, gramicidin stimulation, IL-1β readout; read-out: hTHP-1 IC50 (average)

SMILES	IC50 [nM]
COC(C)(C)c1ccc(S(N)(=O)=NC(=O)Nc2c3c(cc4c2CCC4)CCC3)cc1 (single isomer, unassigned) [Example 399, (R) or (S)-N′-((1,2,3,5,6,7-hexahydro-s-indacen-4-yl)carbamoyl)-4-(2-meth-oxypropan-2-yl)benzene-sulfonimidamide]	200 to 1000
CC(C)(O)c1csc(S(N)(=O)=NC(=O)Nc2c3c(cc4c2OCC4)CCC3)n1 (single isomer, unassigned) [Example 354, (R) or (S)-4-(2-hydroxy-propan-2-yl)-N′-((3,5,6,7-tetrahydro-2H-indeno-[5,6-b]furan-8-yl)carbam-oyl)thiazole-2-sulfonimid-amide]	8 to 40
CC(=O)N(C)Cc1ccc(S(N)(=O)=NC(=O)Nc2c3c(cc4c2CCC4)CCC3)cc1 (single isomer, unassigned) [Example 366, (R) or (S)-N-(4-N′-((1,2,3,5,6,7-hexahydro-s-indacen-4-yl)carbamoyl)-sulfamidimidoyl)benzyl)-N-methylacetamide]	1000 to 5000
CN1CCc2cc(S(N)(=O)=NC(=O)Nc3c4c(cc5c3CCC5)CCC4)ccc2C1 (single isomer, unassigned) [Example 395, (R) or (S)-N′-((1,2,3,5,6,7-hexahydro-s-indacen-4-yl)carbamoyl)-2-methyl-1,2,3,4-tetrahydroisoquin-oline-6-sulfonimidamide]	1000 to 5000

Same assay, conditions: Table B3; hTHP-1 assay containing 2% fetal bovine serum, gramicidin stimulation, IL-1β readout; read-out: hTHP-1 IC50

SMILES	IC50 [nM]
NS(=O)(=NC(=O)Nc1c2c(cc3c1CCC3)CCC2)c1ccc(-c2ccccc2)s1 (single isomer, unassigned) [Example 800, (S) or (R)-N′-((1,2,3,5,6,7-hexahydro-s-indacen-4-yl)carbamoyl)-5-phenylthiophene-2-sulfonimidamide]	> 30000
CN(C)Cc1ccc(S(N)(=O)=NC(=O)Nc2c3c(cc4c2CCC4)CCC3)s1 (single isomer, unassigned) [Example 803, (R) or (S)-5-((dimethylamino)methyl)-N′-((1,2,3,5,6,7-hexahydro-5-indacen-4-yl)carbamoyl)thiophene-2-sulfonimidamide]	200 to 1000

Same assay, conditions: hTHP-1 assay containing 2% fetal bovine serum, Table B2, class symbols; read-out: IC50

SMILES	IC50 [nM]
CC(C)(O)c1cncc(S(N)(=O)=NC(=O)Nc2c3c(c(C#N)c4c2CCC4)CCC3)c1 (single isomer, unassigned) [Example 523, (S) or (R)-N′-((8-cyano-1,2,3,5,6,7-hexahydro-s-indacen-4-yl)carbamoyl)-5-(2-hydroxypropan-2-yl)pyridine-3-sulfonimidamide]	5000 to 30000
NS(=O)(=NC(=O)Nc1c2c(cc3c1CCC3)CCC2)c1cnn2c1OCCC2 (single isomer, unassigned) [Example 568, (S) or (R)-N′-((1,2,3,5,6,7-hexahydro-s-indacen-4-yl)carbamoyl)-6,7-dihydro-5H-pyrazolo[5,1-b][1,3]oxazine-3-sulfonimidamide]	5000 to 30000
CC(C)(O)c1csc([S@@](N)(=O)=NC(=O)Nc2c3c(cc4c2C(=O)CC4)CCC3)c1 (single isomer, unassigned) [Example 531, (S) or (R)-4-(2-hydroxypropan-2-yl)-N′-((3-oxo-1,2,3,5,6,7-hexahydro-s-indacen-4-yl)carbamoyl) (thiophene-2 - sulfoniinidamide]	1000 to 5000
CN(C)Cc1ccc(S(N)(=O)=NC(=O)Nc2c3c(cc4c2CC4)CCC3)cc1 (single isomer, unassigned) [Example 581, (S) or (R)-4-((dimethylamino)methyl)-N′-((2,4,5,6-tetrahydro-1H-cyclobuta[f]inden-3-yl)carbamoyl) benzenesulfonimidamide]	5000 to 30000
CC(OC(F)F)c1ccc(S(N)(=O)=NC(=O)Nc2c3c(cc4c2CCC4)CCC3)cc1 (single isomer, unassigned) [Example 638]	1000 to 5000
NS(=O)(=NC(=O)Nc1c2c(cc3c1CC3)CCC2)c1ccc(CN2CCC2)cc1F (single isomer, unassigned) [Example 524, (R) or (S)-4-(azetidin-1-ylmethyl)-2-fluoro-N′-((2,4,5,6-tetrahydro-1H-cyclobuta[f]inden-3 - yl)carbamoyl) benzenesulfonimidamide]	200 to 1000
